Patent US7030119B1, “Method for treating chronic pain using MEK inhibitors” (Warner-Lambert Company, priority 1999, dated 2006)
Entries after “also recorded” stand apart in the source; their conditions may differ. Where a name gives a salt, the structure may show the parent alone. Read-outs that look alike come from different tables or passages of the source.

Experiments:
[1] = test system: CCI-induced static allodynia; assay: chronic constriction injury (CCI)-induced static allodynia (von Frey hairs) in rats; type: in vivo, rat
Protocol: (§1) Male Sprague Dawley rats (250–300 g), obtained from Charles River, Margate, U.K.) were housed in groups of 3–6. All animals were kept under a 12 h light/dark cycle (lights on at 07 h 00 min) with food and water ad libitum. All experiments were carried out by an observer blind to drug treatments.
Animals were anaesthetised with 2% isoflurane 1:4 O2/N2O mixture maintained during surgery via a nose cone. The sciatic nerve was ligated as previously described by Bennett and Xie, 1988. Animals were placed on a homeothermic blanket for the duration of the procedure. After surgical preparation the common sciatic nerve was exposed at the middle of the thigh by blunt dissection through biceps femoris. Proximal to the sciatic trifurcation, about 7 mm of nerve was freed of adhering tissue and 4 ligatures (4-0 silk) were tied loosely around it with about 1 mm spacing. The incision was closed in layers and the wound treated with topical antibiotics.
(§2) PD 198306 and pregabalin were administered intrathecally in a volume of 10 μl using a 100 μl Hamilton syringe by exposing the spine of the rats under brief isoflurane anaesthesia. Injections were made into the intrathecal space between lumbar region 5–6 with a 10 mm long 27 gauge needle. Penetrations were judged successful if there was a tail flick response. The wound was sealed with an autoclip and rats appeared fully awake within 2–3 min following injection.
(§3) Mechanical hypersensitivity was measured using Semmes-Weinstein von Frey hairs (Stoelting, Ill., U.S.A.). Animals were placed into wire mesh bottom cages allowing access to the underside of their paws. Animals were habituated to this environment prior to the start of the experiment. Mechanical hypersensitivity was tested by touching the plantar surface of the animals right hind paw with von Frey hairs in ascending order of force (0.7, 1.2, 1.5, 2, 3.6, 5.5, 8.5, 11.8, 15.1 and 29 g) for up to 6 sec. Once a withdrawal response was established, the paw was re-tested, starting with the next descending von Frey hair until no response occurred. The highest force of 29 g lifted the paw as well as eliciting a response, thus represented the cut off point. The lowest amount of force required to elicit a response was recorded as the paw withdrawal threshold (PWT) in grams.
(§4) Static allodynia was assessed with von Frey hairs, before (baseline, BL) and 0.5 h, 1 h and 2 h after intrathecal or intraplantar administration of PD 198306 (1–30 μg, i.t.), vehicle (cremophor:ethanol:water, 1:1:8) or pregabalin (10 μg, i.t.). For oral administration experiments, static allodynia was assessed with von Frey hairs, before (baseline, BL) and 1 h after oral administration of PD 198306 (3–30 mg/kg, p.o.), vehicle (cremophor:ethanol:water, 1:1:8) or pregabalin (30 mg/kg, p.o.). Animals were administered again the same compounds on the following day, both in the morning and the afternoon. Static allodynia was assessed before and 1 h after the morning administration. In the afternoon static allodynia was assessed before, 1 h, 2 h and 3 h after administration for streptozocin treated animals. CCI animals were assessed before, 1 h and 2 h after administration
PD 198306 and pregabalin were synthesised at Parke-Davis (Ann Arbor, Mich., USA). PD 198306 was suspended in cremophor:ethanol:water (1:1:8) vehicle. Pregabalin was dissolved in water. Both compounds were administered orally, intrathecally or intraplantar in volumes of 1 ml/kg, 10 μl and 100 μl respectively. Streptozocin (Aldrich, UK) was dissolved in 0.9% w/v NaCl and administered intraperitoneally in a volume of 1 ml/kg.
Data were analysed using a Kruskall-Wallis ANOVA for non-parametric results, followed when significant by Mann-Whitney's t test vs vehicle group.
The animals and methods for developing chronic constriction injury in the rat, injecting test compounds, and evaluation of static allodynia were according to Example 2 above. […]

MEK = assay: binding affinity of MEK inhibitors; conditions: affinity of the MEK inhibitors of Biological Example 3
[2] = test system: CCI-induced static allodynia; assay: chronic constriction injury (CCI)-induced static allodynia (von Frey hairs) in rats; type: in vivo, rat; conditions: Biological Example 3; intrathecal administration 30 μg
[3] = test system: streptozocin-induced static allodynia; assay: streptozocin-induced static allodynia (von Frey hairs) in diabetic rats; type: in vivo, rat
Protocol: Male Sprague Dawley rats (250–300 g), obtained from Bantin and Kingman, (Hull, U.K.) were housed in groups of 3. All animals were kept under a 12 h light/dark cycle (lights on at 07 h 00 min) with food and water ad libitum. All experiments were carried out by an observer blind to drug treatments.
Diabetes was induced in rats by a single i.p. injection of streptozocin (50 mg/kg) as described previously (Courteix et al., 1993).
as §3
PD 198306 [N-Cyclopropylmethoxy-3,4,5-trifluoro-2-(4-iodo-2-methyl-phenylamino)-benzamide] and Cl-1008 (pregabalin) were synthesized at Parke-Davis (Ann Arbor, Mich., USA). PD 198306 was suspended in cremophor:ethanol:water (1:1:8) vehicle. Pregabalin was dissolved in water. Both compounds were administered orally. Streptozocin (Aldrich, UK) was dissolved in 0.9% w/v NaCl and administered intraperitoneally. Drug administrations were made in a volume of 1 ml/kg.
The static allodynia data were analysed using a Kruskall-Wallis ANOVA for non-parametric results, followed when significant by Mann-Whitney's t test.
Static allodynia was assessed with von Frey hairs, before (baseline, BL) and 1 h after oral administration of PD 198306 (30 mg/kg, p.o.), vehicle (cremophor:ethanol:water, 1:1:8) or pregabalin (30 mg/kg, p.o.) (test). Animals were administered again the same compounds on the following day, both in the morning and the afternoon. Static allodynia was assessed only before and 1 h after the afternoon administration, in order to minimise the habituation of the animals to the testing conditions. Animals treated with pregabalin received water in the morning administration, in order to avoid the potential development of tolerance to the compound with repeated administration.
as §1, §2
as §4, with “Static allodynia was assessed before and 1 h after the morning administration. In the afternoon static allodynia was assessed before, 1 h, 2 h and 3 h after administration for streptozocin treated animals. CCI animals were assessed before, 1 h and 2 h after administration” left out

colon 26 cells = colon 26 cells IC50; type: cell-based; conditions: Mus musculus
[4] = Biological Example 3, intrathecal administration 30 μg
[5] = Biological Example 1, single administration 30 mg/kg p.o., 1 h after administration
[6] = Biological Example 2, single administration p.o. (pregabalin 30 mg/kg, PD 198306 3–30 mg/kg), 1 h after administration
[7] = intraplantar administration 3 mg/100 μl
[8] = intrathecal administration 1–30 μg

`Cc1cc(I)ccc1Nc1c(C(=O)NOCC2CC2)cc2nc[nH]c2c1F` (as salt: salt) [PD 254552, 7-fluoro-6-(4-iodo-2-methyl-phenylamino)-1H-benzoimidazole-5-carboxylic acid cyclopropylmethoxy-amide] gave a melting point of 168 to 172 °C.

With `O=C(NOCC1CC1)c1ccc(F)c(F)c1Nc1ccc(I)cc1Cl` [PD 184352] the “effect on static allodynia, CCI model” value [1, 4] was “blocked the maintenance of static allodynia”, the “time for which the antiallodynic effect was evident post-injection, CCI model” value [1, 4] was 30 min and the affinity (MEK) was 2 nM. For the same compound, the “magnitude of the antiallodynic effect compared with 100 μg of pregabalin, CCI model” value [2] was “similar”.

For `Cc1cc(I)ccc1Nc1c(C(=O)NOCC2CC2)cc(F)c(F)c1F` [PD 198306, N-Cyclopropylmethoxy-3,4,5-trifluoro-2-(4-iodo-2-methyl-phenylamino)-benzamide], the “effect on streptozocin-induced static allodynia” value ([3]; Biological Example 1, 30 mg/kg p.o., 1 h after the third administration (twice more on the following day)) was “significantly blocked”, the “persistence of the effect on streptozocin-induced static allodynia” value ([3]; Biological Example 1, 30 mg/kg p.o., day after the third administration) was “disappeared by the following day” and the “effect on streptozocin-induced static allodynia” value [3, 5] was “had no effect”. For the same compound, the “effect on streptozocin-induced static allodynia” value ([3]; Biological Example 2, PD 198306 30 mg/kg p.o., after the third administration (3 doses over two days), 30 mg/kg) was “significantly blocked; also recorded: transient effect”, the “effect on streptozocin-induced static allodynia” value [3, 6] was “had no effect” and the “effect on static allodynia, streptozocin model” value [3, 7] was “had no effect”. For the same compound, the “minimum effective dose (MED), static allodynia, streptozocin model” value ([3]; intrathecal administration) was 3 µg, the “effect on static allodynia, streptozocin model” value ([3]; intrathecal administration 30 μg) was “significantly blocked; also recorded: totally blocked” and the “effect on static allodynia, streptozocin model” value [3, 8] was “dose-dependently blocked”. For the same compound, the “effect on static allodynia, CCI model” value ([1]; Biological Example 2, intrathecal administration 30 μg) was “significantly blocked; also recorded: totally blocked”, the “effect on static allodynia, CCI model” value [1, 7] was “had no effect” and the “minimum effective dose (MED), static allodynia, CCI model” value ([1]; intrathecal administration) was 10 µg. For the same compound, the “effect on static allodynia, CCI model” value [1, 8] was “dose-dependently blocked” and the “effect on CCI-induced static allodynia” value ([1]; single or multiple administration 3–30 mg/kg p.o.) was “neither a single or multiple administration of PD 198306 (3–30 mg/kg, p.o) had any effect; also recorded: had no effect”.

In the case of `Cc1cc(I)ccc1Nc1c(C(=O)O)cc2nc[nH]c2c1F` [PD 205293, 7-fluoro-6-(4-iodo-2-methyl-phenylamino)-1H-benzoimidazole-5-carboxylic acid], the melting point is reported as 247 to 248 °C (dec.) and the IC50 (colon 26 cells; read-out: colon 26 cells, IC50) is reported as over 10 µM.

In the case of `Cc1cc(I)ccc1Nc1c(C(=O)NOCC2CC2)cc2nc[nH]c2c1F` [PD 254552, 7-fluoro-6-(4-iodo-2-methyl-phenylamino)-1H-benzoimidazole-5-carboxylic acid cyclopropylmethoxy-amide], the “effect on static allodynia, CCI model” value [1, 4] is reported as “blocked the maintenance of static allodynia”, the “time for which the antiallodynic effect was evident post-injection, CCI model” value [1, 4] is reported as 30 min and the affinity (MEK) is reported as 5 nM. It also gave an IC50 (colon 26 cells; read-out: colon 26 cells, 1 hour pretreatment, IC50) of 0.02 µM.

With `CC(C)C[C@H](CN)CC(=O)O` [pregabalin] the “effect on streptozocin-induced static allodynia” value [3, 5] was “significantly blocked”, the “effect on streptozocin-induced static allodynia” value [3, 6] was “significantly blocked” and the “effect on CCI-induced static allodynia” value ([1]; single administration 30 mg/kg p.o., 1 h after administration) was “significantly blocked”.
